Patent publication US10130674B2, “Modified peptide that reduces pain in peripheral neuropathy” (Creative Bio-Peptides, priority 2010, dated 2018)

Experiments:
[1] = data not shown
[2] = data not shown; remark: listed apart in the source
[3] = test system: CCR5-specific virus (HIVBaL); assay: In vitro CCR5 receptor viral infectivity assay (GHOST R5 reporter cells); type: cell-based, HIV; conditions: GFP reporter
Description: This virus uses CCR5 receptor binding to infect its host cell.
In Vitro CCR5 Receptor Viral Infectivity Assay
A CCR5-specific virus (HIVBaL) was added 1 hr later. CCR5 receptor viral infectivity was tested on CCR5-containing cells with a Green Fluorescent Protein (GFP) reporter that responds to viral infection.
The experiment, which was repeated 5 times in various cell systems, was performed in triplicate and bars correspond to standard error of the mean. Data were analyzed by a nonlinear fit using GraphPad Prism 5.

[4] = Nerve damage neuropathic pain, DAPTA pilot study; type: in vivo, rat
CCR5 = CCR5 (Homo sapiens, UniProt P51681); conditions: cited from earlier work
Sequence of CCR5 (P51681 whole entry): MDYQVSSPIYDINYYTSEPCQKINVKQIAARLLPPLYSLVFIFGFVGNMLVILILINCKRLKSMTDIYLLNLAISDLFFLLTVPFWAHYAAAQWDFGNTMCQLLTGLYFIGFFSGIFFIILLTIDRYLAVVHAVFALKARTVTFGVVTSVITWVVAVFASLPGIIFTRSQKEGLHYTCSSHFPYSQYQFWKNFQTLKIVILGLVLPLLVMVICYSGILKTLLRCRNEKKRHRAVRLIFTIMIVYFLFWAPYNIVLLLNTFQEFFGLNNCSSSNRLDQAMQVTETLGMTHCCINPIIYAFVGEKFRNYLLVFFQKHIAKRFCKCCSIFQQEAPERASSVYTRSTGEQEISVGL

For `C[C@H](O)[C@@H](N)C(=O)N[C@@H](C(=O)N[C@H](CC(N)=O)C(=O)N[C@H](Cc1ccc(O)cc1)C(=O)N[C@@H](C(=O)O)[C@H](C)O)[C@H](C)O` [All D TTNYT], the “paw withdrawal threshold in naïve animals” value [1] was “did not alter” and the “paw withdrawal latency in naïve animals” value [2] was “did not alter”.

For D-Ala-Peptide T-amide [DAPTA], the “block of infection by CCR5 using virus (HIVBaL)” value [3] was “block CCR5 receptors”, the neuropathic pain development ([4]; pilot study, 0.01 mg/kg, not shown) was “inhibited neuropathic pain development” and the “pain in the paw ipsilateral to nerve damage” value ([4]; rats) was “attenuated pain”. The “affinity for R5” value (CCR5) was “femtomolar range”.
